In PMC11478212, “Antitumoral and Antiproliferative Potential of Synthetic Derivatives of Scorpion Peptide IsCT1 in an Oral Cavity Squamous Carcinoma Model” (Molecules, 2024):

Legend:
Format in all cases: cell-based
SCC-25 tumor cells [1] = assay: Cell cycle phase and DNA fragmentation analysis (flow cytometry); settings: 24 h, IsCT-P and AC-AFPK-IsCT1 at IC50, others 100 µM
Method: Figure 3 Analysis of cell cycle phases following a 24 h treatment with synthetic analogs of IsCT1 peptides. The indicated cells were treated at the IC50 values obtained for the IsCT-P and AC-AFPK-IsCT1 peptides and at a concentration of 100 µM for the other peptides. (a) Representative histograms of cell distribution across cell cycle phases; (b) bar graph showing the correlation of the effect on cell cycle and fragmented DNA, expressed as the mean ± SD of three independent SCC-9 tumor cell experiments; (c) bar graph showing the correlation of the effect on cell cycle and fragmented DNA, expressed as the mean ± SD of three independent experiments on SCC-25 tumor cells; (d) bar graph showing the correlation of the effect on cell cycle and fragmented DNA, expressed as the mean ± SD of three independent experiments of normal FN1 cells; (e) bar graph showing the correlation of the effect on cell cycle and fragmented DNA, expressed as the mean ± SD of three independent experiments of normal J774 cells. Statistical differences were obtained using ANOVA and Tukey–Kramer multiple comparison tests. * p < 0.05, ** p < 0.01, and *** p < 0.001 denote significance. ns = not significant.
Tumor (SSC-9 and SSC-25) and normal cells (FN1 and J-774) were subjected to treatment for 24 h at the peptides’ IC50 concentrations. Treated and control cells were trypsinized and centrifuged at 1200 rpm for 5 min. The resulting pellet was resuspended in 1 mL of cold buffer, followed by the addition of 3 mL of absolute ethanol. Samples were stored at −20 °C for 24 h. The samples were then centrifuged at 1500 rpm for 10 min and resuspended in 200 μL of FACS buffer containing 0.1% Triton X-100 (Sigma-Aldrich, St. Louis, MO, USA), 50 μg/mL propidium iodide (Sigma-Aldrich), and 1 µL of RNAse (200×). This mixture was kept at room temperature and protected from light for 30 min. The samples were then transferred to cytometry tubes and analyzed using a FACScanto flow cytometer (BD) with 10,000 events, and histograms were acquired and analyzed using ModFit LT 5.0 software.

SCC-25 tumor cells [2] = assay: Mitochondrial membrane electrical potential (ΔΨm) by flow cytometry; settings: 24 h, IsCT-P and AC-AFPK-IsCT1 at IC50, others 100 µM, MitoRed, mean ± SD of three independent experiments
Method: (§1) Figure 4 Analysis of mitochondrial electrical potential (ΔΨm) using flow cytometry following a 24 h treatment with synthetic analogs of IsCT1 peptides. The indicated cells were treated at the IC50 values obtained for the IsCT-P and AC-AFPK-IsCT1 peptides and at a concentration of 100 µM for the other peptides. (a) Representative histograms of cell distribution according to ΔΨm; (b) bar graph showing ΔΨm expressed as the mean ± SD of three independent experiments of SCC-9 tumor cells; (c) bar graph showing ΔΨm expressed as the mean ± SD of three independent experiments of SCC-25 tumor cells; (d) bar graph showing ΔΨm expressed as the mean ± SD of three independent experiments of normal FN1 cells; (e) bar graph showing ΔΨm expressed as the mean ± SD of three independent experiments of normal J774 cells. Statistical differences were obtained using ANOVA and Tukey–Kramer multiple comparison tests. * p < 0.05, ** p < 0.01, and *** p < 0.001 denote significance. ns = not significant.
(§2) Tumor (SSC-9 and SSC-25) and normal cells (FN1 and J-774) were subjected to treatment for a period of 24 h at the peptides’ IC50 concentrations. After treatment, the cells were trypsinized, centrifuged at 1200 rpm for 5 min, the supernatant was discarded, and the cells were resuspended in complete medium containing MitoRed™ (Sigma-Aldrich, USA) (200 nM/L). Subsequently, the samples were incubated in an incubator at 37 °C with 5% CO2 for 30 min. The tubes were then centrifuged, the supernatant was discarded, and the pellet was resuspended in 200 μL of FACS buffer. Readings were performed using a FACScanto flow cytometer (BD) with 10,000 events, and histograms were acquired and analyzed using FCS Express software 2.0.

SCC-9 tumor cells [3] = assay: as above; settings: 24 h, IsCT-P and AC-AFPK-IsCT1 at IC50, others 100 µM, MitoRed, mean ± SD of three independent experiments
Method: as §1, §2

SCC-25 tumor cells [4] = assay: Mitochondrial potential by confocal microscopy (MitoRed/DAPI); settings: 24 h, IsCT-P and AC-AFPK-IsCT1 at IC50, others 100 µM, MitoRed, DAPI
Method: (§3) Figure 5 Photomicrographs of tongue squamous cell carcinoma tumor cells (SCC-9 and SCC-25) and macrophages (J774), with mitochondria stained red (MitoRED) and nuclei stained blue (DAPI), analyzed using confocal laser microscopy. The indicated cells were treated at the IC50 values obtained for the IsCT-P and AC-AFPK-IsCT1 peptides and at a concentration of 100 µM for the other peptides for a period of 24 h.
(§4) For the confocal microscopy ana.lysis, tumor and normal cells were cultured in 24-well plates containing round coverslips with RPMI and Leibovitz medium, respectively, supplemented with 10% FBS and incubated with 5% CO2 at 37 °C for 24 h. Samples from the control and treated groups were subjected to the process of removing the culture medium and washing with RPMI medium. A total of 200 nML^−1 of MitoRed (Sigma-Aldrich, USA) was then added and the cells were incubated for 1 h in the dark at 37 °C. After incubation, the cells were washed with PBS, incubated with MitoRed, and fixed with 4% paraformaldehyde for 30 min. The cells were then washed with PBS and incubated. A total of 10 µL of VECTASHIELD® antifade with DAPI (Vector Laboratories, Burlingame, CA, USA) was used on the slide to promote the sealing and marking of the nucleus. The slides were stored in a closed place until the day of reading. Coverslips were placed on slides for observation under a confocal laser fluorescence microscope (Fluoview™ 300) and images were documented and analyzed.

SCC-9 tumor cells [5] = assay: as above; settings: 24 h, IsCT-P and AC-AFPK-IsCT1 at IC50, others 100 µM, MitoRed, DAPI
Method: as §3, §4

| Substance | fragmented DNA (SCC-25 tumor cells [1]) | decrease in ΔΨm (SCC-25 tumor cells [2]) | decrease in ΔΨm (SCC-9 tumor cells [3]) | change in mitochondrial electric potential (confocal) (SCC-25 tumor cells [4]) | change in mitochondrial electric potential (confocal) (SCC-9 tumor cells [5]) |
| --- | --- | --- | --- | --- | --- |
| H-ILKKIWKPIKKLF-NH2 [IsCT-P] | 32.4% | 44.4 ± 4.8% | 21.2 ± 5.1% | promoted a reduction in the mitochondrial electric potential | promoted a reduction in the mitochondrial electric potential |
| Ac-ALGKFWPKIKSLF-NH2 [AC-AFPK-IsCT1] | 16.5% | 31.5 ± 5.4% | 16.3 ± 2.7% | promoted a reduction in the mitochondrial electric potential | promoted a reduction in the mitochondrial electric potential |
